The text below walks through data of publication PMC5185321 (Journal of medicinal chemistry, 2015).

One data set concerns cocaine-seeking behavior. The conditions noted are these: cited from earlier work.
The subject of a further data set is ALDH2. To be noted: read-out: ALDH2 inhibition; cited from earlier work.
A further data set in a line: physchem. The conditions noted are these: aqueous medium at pH 7.4, pH 7.4, aqueous buffer, kinetic from dmso stock.
Data set [1] in a line: High-throughput RLM stability. The format is in vitro ADME. To be noted: rat, rat liver microsomes, pH 7.4.
The target in data set [2] is T1, hALDH1A1 (Homo sapiens, UniProt P00352).
T1 sequence (P00352 1-501): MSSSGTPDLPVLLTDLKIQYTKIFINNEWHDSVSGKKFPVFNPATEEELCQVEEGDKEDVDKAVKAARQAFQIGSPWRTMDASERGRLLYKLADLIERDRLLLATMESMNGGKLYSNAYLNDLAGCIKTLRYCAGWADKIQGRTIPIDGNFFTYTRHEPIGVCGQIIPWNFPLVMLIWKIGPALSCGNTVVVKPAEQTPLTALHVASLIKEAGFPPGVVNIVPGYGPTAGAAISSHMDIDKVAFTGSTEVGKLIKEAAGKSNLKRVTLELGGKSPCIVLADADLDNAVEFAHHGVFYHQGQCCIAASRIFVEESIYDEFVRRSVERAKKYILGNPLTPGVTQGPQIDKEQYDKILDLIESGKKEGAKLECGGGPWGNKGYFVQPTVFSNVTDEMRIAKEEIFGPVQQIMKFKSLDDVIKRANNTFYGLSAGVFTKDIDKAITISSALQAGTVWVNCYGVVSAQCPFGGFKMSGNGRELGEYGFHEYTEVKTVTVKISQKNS
Nature of the data set: Primary qHTS against hALDH1A1. It counts as biochemical.

The target of data set [3] is T1, hALDH1A1. Nature of the data set: biochemical.
A further data set concerns the target T2, human ALDH2 (Homo sapiens, UniProt P05091).
T2 sequence (P05091 18-517): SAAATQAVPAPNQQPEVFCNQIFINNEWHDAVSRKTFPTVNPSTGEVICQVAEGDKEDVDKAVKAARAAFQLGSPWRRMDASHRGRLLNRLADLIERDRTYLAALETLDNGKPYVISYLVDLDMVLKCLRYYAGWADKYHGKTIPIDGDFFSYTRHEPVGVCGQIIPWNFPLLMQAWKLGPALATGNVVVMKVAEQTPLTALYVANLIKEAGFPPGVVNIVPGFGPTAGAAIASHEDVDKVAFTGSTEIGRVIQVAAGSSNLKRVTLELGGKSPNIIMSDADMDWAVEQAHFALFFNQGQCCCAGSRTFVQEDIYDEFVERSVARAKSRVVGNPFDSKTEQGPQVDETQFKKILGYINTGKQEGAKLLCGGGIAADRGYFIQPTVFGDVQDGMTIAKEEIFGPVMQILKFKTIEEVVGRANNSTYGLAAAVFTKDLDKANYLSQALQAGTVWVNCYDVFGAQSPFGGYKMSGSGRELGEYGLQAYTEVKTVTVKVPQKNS
Nature of the data set: ALDH enzymatic assay, ALDH2. The format is biochemical.

The target in the next data set is T3, human ALDH1B1 (Homo sapiens, UniProt P30837).
T3 sequence (P30837 18-517): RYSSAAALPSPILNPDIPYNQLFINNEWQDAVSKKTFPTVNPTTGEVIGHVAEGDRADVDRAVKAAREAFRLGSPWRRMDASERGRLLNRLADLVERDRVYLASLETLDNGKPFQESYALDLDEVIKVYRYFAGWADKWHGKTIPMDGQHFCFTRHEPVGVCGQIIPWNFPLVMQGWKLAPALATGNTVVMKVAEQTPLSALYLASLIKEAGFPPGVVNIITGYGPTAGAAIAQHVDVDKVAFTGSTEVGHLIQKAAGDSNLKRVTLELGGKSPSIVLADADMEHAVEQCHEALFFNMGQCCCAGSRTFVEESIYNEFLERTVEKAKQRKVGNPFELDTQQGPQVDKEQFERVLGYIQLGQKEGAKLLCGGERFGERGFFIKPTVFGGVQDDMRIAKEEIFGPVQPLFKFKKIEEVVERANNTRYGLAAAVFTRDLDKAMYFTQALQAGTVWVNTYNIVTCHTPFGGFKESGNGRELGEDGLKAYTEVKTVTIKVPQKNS
The data set is described as follows: biochemical.

The nature of data set [4]: Pharmacokinetics in CD1 mice. The format is in vivo. The conditions noted are these: CD1, mouse.
The subject of data set [5] is more than 450 human kinases. The data set is described as follows: DiscoveRx KINOMEscan off-target kinase profiling. The format is binding. The conditions noted are these: 10 µM, hit = inhibition of ≥55%.
Data set [6] is described as follows: CD1 mouse liver microsomal stability. The format is in vitro ADME. The conditions noted are these: mouse liver microsomes.
For data set [7] the following is noted: microsomes.
The nature of a further data set: Plasma protein binding. The format is in vitro ADME.
Another data set in a line: Caco-2 permeability. The format is in vitro ADME. The conditions noted are these: human.
A short description of data set [8]: In vitro stability in CD1 mouse plasma. It counts as in vitro ADME.
Data set [9] deals with 168 GPCRs covering 60 receptor families. The data set is described as follows: gpcrMAX panel profiling. The format is cell-based. The conditions noted are these: agonist and antagonist mode.
A short description of data set [10]: Multipoint rat liver microsomal stability. It counts as in vitro ADME.

The structures appear in SMILES notation.

With `CS(=O)(=O)Nc1ccc(-c2coc3cc(OCc4cccc(C(=O)O)c4)ccc3c2=O)cc1` [Compound 1], the “reduction of cocaine-seeking behavior” value in the data set with cocaine-seeking behavior is “demonstrated activity in the reduction of cocaine-seeking behavior”. For the same molecule, in the data set with ALDH2, the IC50 was 29 nM.
In the data set “physchem”, `CCOC(=O)N1CCN(Cc2nc3c(c(=O)n(C)c(=O)n3C)n2Cc2cccc(C)c2)CC1` [Compound 5, ethyl 4-((1,3-dimethyl-7-(3-methylbenzyl)-2,6-dioxo-2,3,6,7-tetrahydro-1H-purin-8-yl)methyl)piperazine-1-carboxylate] returned a solubility of more than 62 µg/mL. Further, in data set [1], the half-life at 1 µM was determined as 5 min. Moreover, the IC50 was 84 nM against hALDH1A1 [2], 40 ± 5 nM against hALDH1A1 [3], 2400 nM against human ALDH2 and more than 57000 nM at human ALDH1B1.
Consider `CCOC(=O)N1CCN(c2nc3c(c(=O)n(C)c(=O)n3C)n2Cc2cccc(C)c2)CC1` [Compound 11, Ethyl 4-(1,3-Dimethyl-7-(3-methylbenzyl)-2,6-dioxo-2,3,6,7-tetrahydro-1H-purin-8-yl)piperazine-1-carboxylate], for which the half-life at 1 µM in data set [1] came out at 2 min. In addition, the IC50 against hALDH1A1 [3] was found to be 570 ± 156 nM.
As to `CNC(=O)c1ccc(Oc2nc3c(c(=O)n(C)c(=O)n3C)n2Cc2cccc(C)c2)cc1` [Compound 12, 4-((1,3-dimethyl-7-(3-methylbenzyl)-2,6-dioxo-2,3,6,7-tetrahydro-1H-purin-8-yl)oxy)-N-methylbenzamide], in “physchem”, the solubility is less than 1 µg/mL. The half-life at 1 µM in data set [1] is 8 min. In addition, the results for the IC50 against hALDH1A1 [3], at human ALDH2 and against human ALDH1B1 were 57 nM, 6100 nM and more than 57000 nM, respectively.
As for `Cc1cccc(Cn2c(OC3CCNCC3)nc3c2c(=O)n(C)c(=O)n3C)c1` [Compound 14, 1,3-dimethyl-7-(3-methylbenzyl)-8-(piperidin-4-yloxy)-1H-purine-2,6(3H,7H)-dione], the half-life at 1 µM in data set [1] was 21 min. The IC50 against hALDH1A1 [3] was 13700 ± 4900 nM.
With `Cc1cccc(Cn2c(OC3CCN(c4nccc(C)n4)CC3)nc3c2c(=O)n(C)c(=O)n3C)c1` [Compound 19, 1,3-dimethyl-7-(3-methylbenzyl)-8-((1-(4-methylpyrimidin-2-yl)-piperidin-4-yl)oxy)-1H-purine-2,6(3H,7H)-dione], the half-life at 1 µM in data set [1] came out at 1 min. For the same molecule, at hALDH1A1 [3], the IC50 was 19200 ± 3300 nM.
For `Cn1c(=O)c2c(nc(OC3CCN(C(=O)C4CC4)CC3)n2Cc2ccccc2)n(C)c1=O` [Compound 21, 7-benzyl-8-((1-(cyclopropanecarbonyl)piperidin-4-yl)oxy)-1,3-dimethyl-1H-purine-2,6(3H,7H)-dione] the same measures were more than 30 min and 214 ± 28 nM.
For the molecule `Cn1c(=O)c2[nH]c(OC3CCN(C(=O)C4CC4)CC3)nc2n(C)c1=O` [Compound 22, 8-((1-(cyclopropanecarbonyl)piperidin-4-yl)oxy)-1,3-dimethyl-1H-purine-2,6(3H,7H)-dione], in data set [1], the half-life at 1 µM is more than 30 min. Also, the IC50 against hALDH1A1 [3] was 25100 ± 5900 nM.
`Cc1cccc(Cn2c(OC3CCN(C(=O)C4CC4)CC3)nc3c2c(=O)n(C)c(=O)n3C)c1` [Compound 34, 8-((1-(cyclopropanecarbonyl)piperidin-4-yl)oxy)-1,3-dimethyl-7-(3-methylbenzyl)-1H-purine-2,6(3H,7H)-dione]: in [1], the half-life at 1 µM turned out to be 4 min. In addition, the IC50 at hALDH1A1 [3] was 84 ± 14 nM; on human ALDH2, 15300 nM; against human ALDH1B1 it was more than 57000 nM.
Turning to `Cn1c(=O)c2c(nc(OC3CCN(C(=O)C4CC4)CC3)n2CCc2ccccc2)n(C)c1=O` [Compound 39, 8-((1-(cyclopropanecarbonyl)piperidin-4-yl)oxy)-1,3-dimethyl-7-phenethyl-1H-purine-2,6(3H,7H)-dione], the half-life at 1 µM in data set [1] turned out to be 14 min. This molecule also had an IC50 against hALDH1A1 [3] of 629 ± 179 nM.
For `Cn1c(=O)c2c(nc(OC3CCN(C(=O)C4CC4)CC3)n2CCC2CCCCC2)n(C)c1=O` [Compound 54, 7-(2-cyclohexylethyl)-8-((1-(cyclopropanecarbonyl)piperidin-4-yl)oxy)-1,3-dimethyl-1H-purine-2,6(3H,7H)-dione] the same measures were 1 min and 30 ± 12 nM.
In data set [1], `CC(C)CCn1c(CN2CCN(C(=O)C3CC3)CC2)nc2c1c(=O)n(C)c(=O)n2C` [Compound 64, 8-((4-(cyclopropanecarbonyl)piperazin-1-yl)methyl)-7-isopentyl-1,3-dimethyl-1H-purine-2,6(3H,7H)-dione] returned a half-life at 1 µM of more than 30 min. In data set [4] (brain, po, 10 mg/kg), this molecule showed an AUC(0-t) of 261 ng·h/mL, a Cmax of 1130 ng/mL and a half-life of 24 min. Further, in data set [4] (liver, po, 10 mg/kg), the AUC(0-t) was determined as 1880 ng·h/mL, the Cmax was determined as 2690 ng/mL and the half-life is 24 min. Further, the half-life in data set [4] (plasma, intravenous, oral, intraperitoneal) was less than 60 min. In data set [4] (plasma, ip, 30 mg/kg), this molecule showed an AUC(0-t) of 5670 ng·h/mL, a Cmax of 8080 ng/mL, a bioavailability of 100% and a half-life of 42 min. In addition, in data set [4] (plasma, iv, 2 mg/kg), the AUC(0-t) is 332 ng·h/mL, the C0 was 2070 ng/mL, the Vd is 1.8 L/kg and the clearance was 98 mL/min/kg. The half-life in [4] (plasma, iv, 2 mg/kg) is 30 min. In data set [4] (plasma, po, 10 mg/kg), this molecule gave an AUC(0-t) of 484 ng·h/mL, a Cmax of 696 ng/mL, a bioavailability of 29% and a half-life of 24 min. Moreover, the “off-target kinase activity (KINOMEscan)” value in [5] is reported as “no significant hits”. This molecule came in with a half-life in data set [6] of 17 min. Besides, in data set [7], the “human liver microsomal stability (HLM)” value is reported as more than 120 min. Moreover, the plasma protein binding in the data set “Plasma protein binding” amounted to 68.6 % bound. In “Caco-2 permeability”, this molecule had a Papp A→B of 19.3 ×10⁻⁶ cm/s and a Papp B→A of 19.6 ×10⁻⁶ cm/s. In addition, the “in vitro stability in CD1 mouse plasma” value in data set [8] was more than 60 min. Besides, in [9], the gpcrMAX off-target activity entry is reported as “very little activity in either agonist or antagonist mode”. In addition, the “multipoint rat liver microsomal stability” value in data set [10] came to 84 min. On human ALDH1B1, this molecule gave an IC50 of more than 57000 nM.
